Measurements reported in patent publication US20110269625A1, “Synergistic insecticidal mixtures” (Bayer CropScience AG, priority 2008, published 2011).

What was measured:
Format in all cases: in vivo
[1] = system: green peach aphid (Myzus persicae); test: Myzus persicae test (spray treatment of infested cabbage leaves)
Text: (§1) The expected action for a given combination of two active ingredients can be calculated according to S. R. Colby, Weeds 15 (1967), 20-22) as follows:
(§2) • X is the kill rate, expressed in % of the untreated control, using the active ingredient A at an application rate of m g/ha or in a concentration of m ppm, • Y is the kill rate, expressed in % of the untreated control, using the active ingredient B at an application rate of n g/ha or in a concentration of n ppm, • E is the kill rate, expressed in % of the untreated control, using the active ingredients A and B at application rates of m and n g/ha or in a concentration of m and n ppm, then is
(§3) If the actual insecticidal kill rate is greater than that calculated, the kill rate of the combination is superadditive, i.e. there is a synergistic effect. In this case, the actually observed kill rate must be greater than the value calculated from the above formula for the expected kill rate (E).
Solvent: 7 parts by weight of dimethylformamide Emulsifier: 2 parts by weight of alkylaryl polyglycol ether
(§4) To produce an appropriate active ingredient formulation, 1 part by weight of active ingredient is mixed with the stated amounts of solvent and emulsifier, and the concentrate is diluted with emulsifier-containing water to the desired concentration.
Cabbage leaves (Brassica oleracea) severely infested by the green peach aphid (Myzus persicae) are treated by spraying with the active ingredient formulation in the desired concentration.
(§5) After the desired time, the kill rate in % is determined 100% means that all of the aphids have been killed; 0% means that none of the aphids have been killed. The kill rates determined are entered into Colby's formula.

[2] = system: larvae of the mustard beetle (Phaedon cochleariae); test: Phaedon cochleariae larvae test (sprayed cabbage leaves populated with larvae); details: 4 ppm, spray
Text: as §1, §2, §3
Solvent: 7 parts by weight of dimethylformamide Emulsifier: 2 parts by weight of alkyl aryl polyglycol ether
as §4
Cabbage leaves (Brassica oleracea) are treated by spraying with the active ingredient formulation of the desired concentration and populated with larvae of the mustard beetle (Phaedon cochleariae) while the leaves are still moist.
After the desired time, the kill rate in % is determined 100% means that all beetle larvae have been killed; 0% means that none of the beetle larvae have been killed. The kill rates determined are entered into Colby's formula.

[3] = system: cotton aphid (Aphis gossypii); test: Aphis gossypii test (spray treatment of infested cotton plants)
Text: as §1, §2, §3
Solvent: 7 parts by weight of dimethylformamide Emulsifier: 2 parts by weight of alkylaryl polyglycol ether […]
as §5

Row | Structure (SMILES) | Kill rate in % after 6 days ([1]; 0.8 ppm) | Kill rate in % after 6 days [2] | Kill rate in % after 6 days ([3]; 0.8 ppm) | Kill rate in % after 1 d ([1]; 0.8 ppm) | Kill rate in % after 6 days ([3]; 0.16 ppm) | Kill rate in % after 1 d ([1]; 0.16 ppm)
1 | C/C(=N\C#N)N(C)Cc1ccc(Cl)nc1 [acetamiprid] | 0% | 0% |  |  |  | 
2 | N#C/N=C1\SCCN1Cc1ccc(Cl)nc1 [thiacloprid] |  | 0% | 25% | 25% |  | 
3 | CC1(C)[C@H](C=C(Cl)Cl)[C@H]1C(=O)OCc1c(F)c(F)cc(F)c1F [transfluthrin] | 0% | 0% |  |  | 0% | 0%
